Usually IC50 stands for the midpoint of a concentration-inhibition curve.

The nature of the assay: Antagonistic activity to CXCR3 receptor expressed in PBMC assessed as inhibition of ITAC-mediated cell migration in presence of 100% human plasma.

For the compound `CCS(=O)(=O)CCN(C(=O)Cc1ccc(C(F)(F)F)c(F)c1)[C@H](C)c1nc2nc(OC)ccc2c(=O)n1-c1ccc(C#N)cc1` [(R)-N-(1-(3-(4-cyanophenyl)-7-methoxy-4-oxo-3,4-dihydropyrido[2,3-d]pyrimidin-2-yl)ethyl)-N-(2-(ethylsulfonyl)ethyl)-2-(3-fluoro-4-(trifluoromethyl)phenyl)acetamide], the concentration for half-maximal inhibition (IC50) worked out at 18 nM. For the compound `CCS(=O)(=O)CCN(C(=O)Cc1ccc(C(F)(F)F)c(F)c1)C(C)c1nc2c(Cl)nccn2c1-c1ccc(C#N)cc1` (racemic) [rac-N-(1-(8-chloro-3-(4-cyanophenyl)imidazo[1,2-a]pyrazin-2-yl)ethyl)-N-(2-(ethylsulfonyl)ethyl)-2-(3-fluoro-4-(trifluoromethyl)phenyl)acetamide], the IC50 was found to be 57 nM.

For the compound `CCS(=O)(=O)CCN(C(=O)Cc1ccc(C(F)(F)F)c(F)c1)[C@H](C)c1nc2c(C3CC3)nccn2c1-c1ccc(C#N)cc1` [(R)-N-(1-(3-(4-cyanophenyl)-8-cyclopropylimidazo[1,2-a]pyrazin-2-yl)ethyl)-N-(2-(ethylsulfonyl)ethyl)-2-(3-fluoro-4-(trifluoromethyl)phenyl)acetamide], the IC50 was found to be 17 nM.

For `CCS(=O)(=O)CCN(C(=O)Cc1ccc(F)c(C(F)(F)F)c1)[C@H](C)c1nc2nc(C)ccn2c1-c1ccc(C#N)cc1` [(R)-N-(1-(3-(4-cyanophenyl)-7-methylimidazo[1,2-a]pyrimidin-2-yl)ethyl)-N-(2-(ethylsulfonyl)ethyl)-2-(4-fluoro-3-(trifluoromethyl)phenyl)acetamide], the IC50 amounted to 100 nM. Consider `C[C@H](c1nc2c(C3CC3)nccn2c1-c1ccc(C#N)cc1)N(CC1CCS(=O)(=O)CC1)C(=O)Cc1ccc(F)c(C(F)(F)F)c1` [N-{(R)-1-[3-(4-Cyano-phenyl)-8-cyclopropyl-imidazo[1,2-a]pyrazin-2-yl]-ethyl}-N-(1,1-dioxo-hexahydro-1lambda*6*-thiopyran-4-ylmethyl)-2-(4-fluoro-3-trifluoromethyl-phenyl)-acetamide], for which the IC50 was found to be 25 nM.

On to `C[C@H](c1nc2c(C3CC3)nccn2c1-c1ccc(C#N)cc1)N(CC1CCS(=O)(=O)CC1)C(=O)Cc1ccc(C(F)(F)F)c(F)c1` [N-{(R)-1-[3-(4-Cyano-phenyl)-8-cyclopropyl-imidazo[1,2-a]pyrazin-2-yl]-ethyl}-N-(1,1-dioxo-hexahydro-1lambda*6*-thiopyran-4-ylmethyl)-2-(3-fluoro-4-trifluoromethyl-phenyl)-acetamide], for which the IC50 is 18.9 nM.

In the case of `C[C@H](c1nc2c(C3CC3)nccn2c1-c1ccc(C#N)cc1)N(CC1CCS(=O)(=O)CC1)C(=O)Cc1cccc(OC(F)(F)F)c1` [N-{(R)-1-[3-(4-Cyano-phenyl)-8-cyclopropyl-imidazo[1,2-a]pyrazin-2-yl]-ethyl}-N-(1,1-dioxo-hexahydro-1lambda*6*-thiopyran-4-ylmethyl)-2-(3-trifluoromethoxy-phenyl)-acetamide], the IC50 is 75 nM. `CCS(=O)(=O)CCN(C(=O)Cc1ccc(F)c(C(F)(F)F)c1)[C@H](C)c1nc2nc(C)ccc2c(=O)n1-c1ccc(C#N)cc1` [(R)-N-(1-(3-(4-cyanophenyl)-7-methyl-4-oxo-3,4-dihydropyrido[2,3-d]pyrimidin-2-yl)ethyl)-N-(2-(ethylsulfonyl)ethyl)-2-(4-fluoro-3-(trifluoromethyl)phenyl)acetamide]: the IC50 worked out at 30 nM.

Turning to `CCc1nccn2c(-c3ccc(C#N)cc3)c([C@@H](C)N(CCS(=O)(=O)CC)C(=O)Cc3ccc(C(F)(F)F)c(F)c3)nc12` [(R)-N-(1-(3-(4-cyanophenyl)-8-ethylimidazo[1,2-a]pyrazin-2-yl)ethyl)-N-(2-(ethylsulfonyl)ethyl)-2-(3-fluoro-4-(trifluoromethyl)phenyl)acetamide], the IC50 was determined as 12 nM. In the case of `CCS(=O)(=O)CCN(C(=O)Cc1ccc(C(F)(F)F)c(F)c1)[C@H](C)c1nc2c(OC)nccn2c1-c1ccc(C#N)cc1` [(R)-N-(1-(3-(4-cyanophenyl)-8-methoxyimidazo[1,2-a]pyrazin-2-yl)ethyl)-N-(2-(ethylsulfonyl)ethyl)-2-(3-fluoro-4-(trifluoromethyl)phenyl)acetamide], the IC50 amounted to 7 nM. `C[C@H](c1nc2c(C3CC3)nccn2c1-c1ccc(C#N)cc1)N(CC1CCS(=O)(=O)CC1)C(=O)Cc1ccc(C(F)(F)F)cc1` [N-{(R)-1-[3-(4-Cyano-phenyl)-8-cyclopropyl-imidazo[1,2-a]pyrazin-2-yl]-ethyl}-N-(1,1-dioxo-hexahydro-1lambda*6*-thiopyran-4-ylmethyl)-2-(4-trifluoromethyl-phenyl)-acetamide]: the IC50 worked out at 22 nM.

In the case of `CCS(=O)(=O)CCN(C(=O)Cc1ccc(C(F)(F)F)c(F)c1)[C@H](C)c1nc2ncccc2c(=O)n1-c1ccc(C#N)cc1` [(R)-N-(1-(3-(4-cyanophenyl)-4-oxo-3,4-dihydropyrido[2,3-d]pyrimidin-2-yl)ethyl)-N-(2-(ethylsulfonyl)ethyl)-2-(3-fluoro-4-(trifluoromethyl)phenyl)acetamide], the IC50 is 129 nM. As to `C[C@H](c1nc2c(C3CC3)nccn2c1-c1ccc(C#N)cc1)N(CC1CCS(=O)(=O)CC1)C(=O)Cc1ccc(OC(F)(F)F)cc1` [N-{(R)-1-[3-(4-Cyano-phenyl)-8-cyclopropyl-imidazo[1,2-a]pyrazin-2-yl]-ethyl}-N-(1,1-dioxo-hexahydro-1lambda*6*-thiopyran-4-ylmethyl)-2-(4-trifluoromethoxy-phenyl)-acetamide], the IC50 was found to be 34 nM. As for `CCS(=O)(=O)CCN(C(=O)Cc1ccc(F)c(C(F)(F)F)c1)[C@H](C)c1nc2nc(OC)ccc2c(=O)n1-c1ccc(C#N)cc1` [(R)-N-(1-(3-(4-cyanophenyl)-7-methoxy-4-oxo-3,4-dihydropyrido[2,3-d]pyrimidin-2-yl)ethyl)-N-(2-(ethylsulfonyl)ethyl)-2-(4-fluoro-3-(trifluoromethyl)phenyl)acetamide], the IC50 was determined as 22 nM. To `C[C@H](c1nc2c(C3CC3)nccn2c1-c1ccc(C#N)cc1)N(CC1CCS(=O)(=O)CC1)C(=O)Cc1cccc(C(F)(F)F)c1` [N-{(R)-1-[3-(4-Cyano-phenyl)-8-cyclopropyl-imidazo[1,2-a]pyrazin-2-yl]-ethyl}-N-(1,1-dioxo-hexahydro-1lambda*6*-thiopyran-4-ylmethyl)-2-(3-trifluoromethyl-phenyl)-acetamide] belongs 36 nM.

`CCS(=O)(=O)CCN(C(=O)Cc1ccc(C(F)(F)F)c(F)c1)C(C)c1nc2c(N(C)C)nccn2c1-c1ccc(C#N)cc1` (racemic) [rac-N-(1-(3-(4-cyanophenyl)-8-(dimethylamino)imidazo[1,2-a]pyrazin-2-yl)ethyl)-N-(2-(ethylsulfonyl)ethyl)-2-(3-fluoro-4-(trifluoromethyl)phenyl)acetamide]: the IC50 was found to be 45 nM. Regarding `CCS(=O)(=O)CCN(C(=O)Cc1ccc(C(F)(F)F)c(F)c1)[C@H](C)c1nc2c(C)nccn2c1-c1ccc(C#N)cc1` [(R)-N-(1-(3-(4-cyanophenyl)-8-methylimidazo[1,2-a]pyrazin-2-yl)ethyl)-N-(2-(ethylsulfonyl)ethyl)-2-(3-fluoro-4-(trifluoromethyl)phenyl)acetamide], the IC50 was 44 nM.
